Reference: patent publication US10005762B2, “Pyridine derivatives” (Astellas Pharma Inc., priority 2014, dated 2018)
Marks after values point to notes of the source that are not given here.

Columns and labels:
[1] = target: IRAP (Rattus norvegicus (Rat), UniProt P97629); experiment: Inhibition of IRAP activity (AVP degradation, rat epididymal fat pad microsomes, MALDI-MS); settings: read-out: IRAP IC50, AVP 25 μM, 1 h at 37° C.
Experimental: (1) Inhibition of IRAP Activity
Residual AVP was then determined by mass spectrometry (MALDI-MS).

[2] = system: water-loaded rats; experiment: Antidiuresis test in water-loaded rats (oral administration); assay type: in vivo, rat; settings: water load 30 ml/kg 1 h after dosing, urine volume 1 h after water loading, vs vehicle control
Experimental: When a test compound is a free base, one molar equivalent hydrochloric acid was added to dissolve the compound in the solvent. Rats in a vehicle control group were administered only with the vehicle. One hour after the administration, 30 ml/kg of distilled water was orally administered to the rats. One hour after the water loading, the urine volume was measured (urine volumes less than 0.3 ml were considered as 0 ml) to calculate the ratio of the urine volume (urinary excretion rate) to the amount of water load.

Chain of IRAP (P97629 whole entry): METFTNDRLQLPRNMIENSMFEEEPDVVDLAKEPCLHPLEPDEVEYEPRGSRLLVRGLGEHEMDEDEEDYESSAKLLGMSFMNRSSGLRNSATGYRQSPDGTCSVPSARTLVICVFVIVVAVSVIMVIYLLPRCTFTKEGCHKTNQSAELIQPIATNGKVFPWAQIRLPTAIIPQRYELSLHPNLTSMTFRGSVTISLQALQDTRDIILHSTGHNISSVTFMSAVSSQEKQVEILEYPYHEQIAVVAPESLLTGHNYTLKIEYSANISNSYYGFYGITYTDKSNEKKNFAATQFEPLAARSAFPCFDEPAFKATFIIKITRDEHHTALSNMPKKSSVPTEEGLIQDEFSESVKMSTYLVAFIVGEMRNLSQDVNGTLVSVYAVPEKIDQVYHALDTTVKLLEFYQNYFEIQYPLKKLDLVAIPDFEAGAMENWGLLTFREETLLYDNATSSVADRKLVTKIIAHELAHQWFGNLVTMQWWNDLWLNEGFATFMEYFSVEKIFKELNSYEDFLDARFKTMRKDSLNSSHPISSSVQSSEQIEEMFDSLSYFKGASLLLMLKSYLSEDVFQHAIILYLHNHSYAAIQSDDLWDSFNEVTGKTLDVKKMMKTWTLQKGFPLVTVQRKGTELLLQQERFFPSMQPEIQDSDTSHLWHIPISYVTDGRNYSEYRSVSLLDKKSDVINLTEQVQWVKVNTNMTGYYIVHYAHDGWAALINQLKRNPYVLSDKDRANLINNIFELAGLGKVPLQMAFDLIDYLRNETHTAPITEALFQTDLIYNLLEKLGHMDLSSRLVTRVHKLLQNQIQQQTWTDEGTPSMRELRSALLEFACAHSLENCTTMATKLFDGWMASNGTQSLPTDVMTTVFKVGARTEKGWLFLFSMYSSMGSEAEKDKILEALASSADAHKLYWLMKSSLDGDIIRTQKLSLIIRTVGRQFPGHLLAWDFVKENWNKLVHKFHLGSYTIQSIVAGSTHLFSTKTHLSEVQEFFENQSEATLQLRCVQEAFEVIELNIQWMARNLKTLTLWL

Compound `CC(C)C[C@H](N)[C@](O)(Cc1nccc2c1CCC1(CCCC1)C2)C(=O)O` [Example 19] has an IC50 [1] of 220 nM.
`Cc1cnc(C[C@](O)(C(=O)O)[C@@H](N)COCCC2CC2)cc1CCCC1CC1` [Example 25] was tested, and the “Inhibition of urination (%)” value ([2]; 3 mg/kg oral) was 88%.
`N[C@@H](CCC1CC1)[C@](O)(Cc1cc(CCCC2CC2)ccn1)C(=O)O` [Example 40] was tested, and the “Inhibition of urination (%)” value ([2]; 3 mg/kg oral) was 100%.
In the case of `CSC[C@H](N)[C@](O)(Cc1nccc2c1C[C@H](CCC1CC1)C2)C(=O)O` [Example 41], the “Inhibition of urination (%)” value ([2]; 1 mg/kg oral (values marked *)) is reported as 69* %.
For `CCCSC[C@H](N)[C@](O)(Cc1nccc2c1C[C@H](CCC1CC1)C2)C(=O)O` [Example 42], the “Inhibition of urination (%)” value ([2]; 1 mg/kg oral (values marked *)) was 81* %.
`CSC[C@H](N)[C@](O)(Cc1nccc2c1C[C@@H](CCC1CC1)C2)C(=O)O` [Example 44] was tested, and the “Inhibition of urination (%)” value ([2]; 1 mg/kg oral (values marked *)) was 51* %.
For `CC(C)C[C@H](N)[C@](O)(Cc1nccc2c1C[C@H](CCC1CC1)C2)C(=O)O` [Example 52], the “Inhibition of urination (%)” value ([2]; 3 mg/kg oral) was 90%.
`COc1ccc(-c2ccnc(C[C@](O)(C(=O)O)[C@@H](N)CC(C)C)c2)cc1` [Example 57] was tested, and the IC50 [1] was 130 nM.
Work on `CC(C)C[C@H](N)[C@](O)(Cc1cc(C2=CCOCC2)ccn1)C(=O)O` [Example 59] yielded an IC50 [1] of 110 nM.
`CC(C)C[C@H](N)[C@](O)(Cc1cc(C2CCOCC2)ccn1)C(=O)O` [Example 78] showed an IC50 [1] of 160 nM.
For `CC(C)C[C@H](N)[C@](O)(Cc1nccc2c1CCC(OCc1ccccc1)C2)C(=O)O` (some centres unmarked) [Example 80], the IC50 [1] was 130 nM.
